For orientation: IC50 means the point on the concentration scale where inhibition reaches its midpoint. One may read the Km as the concentration of substrate that gives half-maximal velocity.

Values joined by “and” are separate entries in the source; they are usually repeats but may differ in a detail not shown here. Identical values can stand only once. “Also recorded” adds a separate entry of the source.

Test [1] deals with T1, Snf1.
T1 construct: The Snf1 complex was purified from a genomically C-terminally-tagged Snf1 yeast; TAP (C, cleaved yes); made in house; host or cells: S. cerevisiae strain Snf1-TAP (Open Biosystems)
As to the kind of experiment: Yeast Snf1 kinase activity assay (IVK, Mig1 substrate). The test is classed as biochemical, Saccharomyces cerevisiae. Further details: key to In vitro kinase assay Snf1 / In vitro kinase assay Snf1, Mean: Mig1 phosphorylation signal density relative to 0 mM Mal-CoA (=1). Conditions: for In vitro kinase assay Snf1, Mean: 0 mM = 1; for In vitro kinase assay Snf1: Replicates 1-3, 0 mM = 1 (Ext. Fig. 10e). As for the experimental part: The Snf1 complex was purified from a genomically C-terminally-tagged Snf1 yeast cultured in YPD and washed with water before filtration to induce Snf1 activation. After filtration, the cells were frozen in liquid nitrogen and cryogenically disrupted using a Precellys homogenizer in lysis buffer (50 mM Tris–HCl pH 7.5, 150 mM NaCl, 0.1% NP-40, 10% glycerol, […] and Roche EDTA-free complete protease inhibitor). The cleared lysates were incubated with IgG-coupled Dynabeads (Dynabeads M-270 Epoxy; Invitrogen, Thermo Fisher Scientific) for 2 h at 4 °C. The beads were washed five times with lysis buffer and Snf1 was eluted through cleavage with TEV protease in elution buffer (50 mM Tris–HCl pH 7.5 and 0.5 mM EDTA) and stored at −80 °C after the addition of 10% glycerol. […] To test the effect of Mal-CoA (M4263, Sigma-Aldrich), the kinase reaction was pre-incubated with 2 μl of the compound from a 15× stock solution and threefold serial dilutions for 15 min. […] Proteins were separated by SDS–PAGE and stained with SYPRO Ruby (S4942, Sigma-Aldrich) to assess loading. Substrate phosphorylation was analysed by autoradiography using a Typhoon FLA 9500 phosphorimager (GE Healthcare) and the raw density of the signals was quantified using the gel analysis tool of ImageJ.

The target of test [2] is T2, Src (Homo sapiens, UniProt P12931).
T2 construct: purchased ProQinase 0200-0000-1
T2 sequence (P12931 whole entry): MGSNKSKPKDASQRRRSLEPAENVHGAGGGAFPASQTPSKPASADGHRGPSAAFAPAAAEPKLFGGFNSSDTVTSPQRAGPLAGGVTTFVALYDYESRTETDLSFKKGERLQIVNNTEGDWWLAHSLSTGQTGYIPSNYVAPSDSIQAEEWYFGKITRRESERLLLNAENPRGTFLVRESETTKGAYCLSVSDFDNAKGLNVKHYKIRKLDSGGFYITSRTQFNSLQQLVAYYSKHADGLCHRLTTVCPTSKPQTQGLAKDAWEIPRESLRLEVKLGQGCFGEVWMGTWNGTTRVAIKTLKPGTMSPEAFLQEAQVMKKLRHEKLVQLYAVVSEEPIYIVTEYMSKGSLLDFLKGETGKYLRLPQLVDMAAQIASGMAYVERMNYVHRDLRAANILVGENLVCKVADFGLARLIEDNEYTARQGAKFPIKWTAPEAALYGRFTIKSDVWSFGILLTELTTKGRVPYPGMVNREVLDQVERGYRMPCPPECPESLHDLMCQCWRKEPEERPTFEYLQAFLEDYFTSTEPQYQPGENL
The test can be described thus: Mammalian Src kinase activity assay (IVK, Glo1 substrate). Type of test: biochemical. The conditions noted are these: for In vitro kinase assay Src, p-Glo(Y316)/Glo, Mean: 0 mM = 1; for In vitro kinase assay Src, p-Glo(Y316)/Glo: Replicates 1-3, 0 mM = 1 (Ext. Fig. 10g). On the procedure:
In vitro assays for phosphorylation of Glo1 by Src were performed as described previously. […] The phosphorylation reaction was stopped by the addition of 2×Laemmli buffer and boiling the samples for 5 min at 95 °C. The samples were run on SDS–PAGE gels and immunoblotted for Src-dependent phosphorylation of Glo1 at Y316 using a homemade antibody.

Test [3] concerns recombinant human MCD (Mal-CoA decarboxylase). The conditions noted are these: read-out: apparent Michaelis constant (Km) of recombinant human MCD for Mal-CoA; cited from earlier work.
Test [4] has as its system Mal-CoA levels. The test can be described thus: fapR/fapOp-yeGFP Mal-CoA reporter system, GFP immunoblot. The test is classed as cell-based, Saccharomyces cerevisiae. Conditions: yeast, untreated = 1, n = 4, Fig. 2b. (Immunoblotting shows a protein as a band on a membrane.)
Test [5] deals with Snf1 (yeast AMPK). The test can be described thus: Snf1 activation in yeast cells, p-Snf1^T210/His immunoblot. Conditions: cerulenin 20 μM, 2 h, wt Ctrl = 1, Fig. 3h. Type of test: cell-based, Saccharomyces cerevisiae.
In test [6] the test system is total protein malonylation. The test can be described thus: Total protein malonylation (Mal-K immunoblot) in HEK293FT/HEK293T cells. Type of test: cell-based, human.
The test system of test [7] is HEK293T cells. The test can be described thus: OPP incorporation assay (de novo protein synthesis). Type of test: cell-based, human. Conditions: cerulenin 50 μM, 4 h. On the procedure: An OPP incorporation assay was used to test for de novo protein synthesis. […] The cells were subsequently washed with DPBS, trypsinized and fixed with ice-cold 70% ethanol for 30 min at −20 °C, followed by three washes with PBS containing 0.5% Tween-20. […] The samples were run in a Guava easyCyte HT flow cytometer (Millipore) and analysed using FlowJo (v10).

Test [8] has as its system FASN, ACC1 and mTOR total protein levels. The test can be described thus: FASN, ACC1 and mTOR total protein levels, immunoblot. The test is classed as cell-based, human. As for the experimental part: For standard SDS–PAGE and immunoblotting experiments, cells from a well of a 12-well plate were lysed in 250 μl of ice-cold Triton lysis buffer (50 mM Tris pH 7.5, 1% Triton X-100, 150 mM NaCl, 50 mM NaF, 2 mM Na-vanadate and 0.011 g ml^−1 β-glycerophosphate) supplemented with 1×PhosSTOP phosphatase inhibitors (cat. no. 4906837001, Roche) and 1×cOmplete protease inhibitors (cat. no. 11836153001, Roche) for 10 min on ice. The samples were clarified by centrifugation (20,000g, 15 min, 4 °C) and the supernatants were boiled in 1×SDS sample buffer (5×SDS sample buffer: 350 mM Tris–HCl pH 6.8, 30% glycerol, 600 mM DTT, 12.8% SDS and 0.12% bromophenol blue). The band intensities were quantified using the ImageJ software.
Data in graphs are shown as the mean ± s.e.m. *P < 0.05, **P < 0.005, ***P < 0.0005. Source numerical data and unprocessed blots are provided. Source data

The subject of test [9] is RagC lysosomal localization. The test can be described thus: Co-localization of RagC with LAMP2, confocal microscopy. Conditions: Ceru 4h, mean of individual cells (ED Fig. 8f); DMSO mean 0.563571. Type of test: cell-based, human.

For `CC(C)(COP(=O)(O)OP(=O)(O)OCC1OC(n2cnc3c(N)ncnc32)C(O)C1OP(=O)(O)O)C(O)C(=O)NCCC(=O)NCCSC(=O)CC(=O)O` (stereo not drawn) [Mal-CoA, malonyl-CoA], the “In vitro kinase assay Snf1, Mean” value in [1] (Mal-CoA 0.073 mM) is 1.243; in test [1] (Mal-CoA 0.22 mM), 0.975; in test [1] (Mal-CoA 2 mM) it was 0.9179; in test [1] (Mal-CoA 6 mM), 0.7128; in test [1] (Mal-CoA […]), 0.967. The “In vitro kinase assay Snf1” value in [1] (Mal-CoA 0.073 mM) was 0.8487 and 1.878 and 1.003; in test [1] (Mal-CoA 0.22 mM), 1.111 and 0.9316 and 0.8826; in [1] (Mal-CoA 2 mM) it was 1.023 and 1.058 and 0.6736; in test [1] (Mal-CoA 6 mM) it was 0.7619 and 0.8143 and 0.5621. In test [1] (purified Snf1, His-tagged Mig1 substrate, IC50 not calculated), the “inhibition of Snf1 in IVK assay” value is “does not inhibit; also recorded: did not demonstrate substantial inhibitory effects”. Besides, the half-inhibitory concentration (IC50) in [2] was determined as 3.04 mM. The “In vitro kinase assay Src, p-Glo(Y316)/Glo, Mean” value in test [2] (Mal-CoA 0.1 mM) is recorded as 0.9108; in [2] (Mal-CoA 0.5 mM) it was 0.93; in test [2] (Mal-CoA 1 mM), 0.7653; in [2] (Mal-CoA 2.5 mM) it was 0.5664; in test [2] (Mal-CoA 5 mM), 0.4682. In addition, the “In vitro kinase assay Src, p-Glo(Y316)/Glo” value in test [2] (Mal-CoA 0.1 mM) was 1.011 and 0.7856 and 0.936; in test [2] (Mal-CoA 0.5 mM) it was 1.127 and 0.8462 and 0.8162; in [2] (Mal-CoA 1 mM), 0.7803 and 0.7329 and 0.7827; in test [2] (Mal-CoA 2.5 mM), 0.5574 and 0.682 and 0.4598; in test [2] (Mal-CoA 5 mM), 0.5068 and 0.3824 and 0.5156. In addition, in test [3], the Michaelis-Menten constant (Km) was 220 to 520 µM.
For the compound `C/C=C/C/C=C/CCC(=O)[C@H]1O[C@H]1C(N)=O` [cerulenin], the results for the “GFP/Adh1 (relative Mal-CoA levels), Mean” value in test [4] (20 μM cerulenin 2h), in [4] (20 μM cerulenin 3h) and in [4] (20 μM cerulenin 4h) were 2.242, 5.039 and 7.957, respectively. Moreover, the “p-Snf1(T210)/His (Snf1), Mean” value turned out to be 1.0013 in [5] (acc1S1157A yeast) and 1.229 in test [5] (wt yeast). In test [6] (ED Fig. 6c, relative to Luc), the “Mal-K/Tubulin, Mean” value came out at 1.769. For the same compound, in test [6] (HEK293FT cells, cerulenin treatment), the “total protein malonylation (Mal-K immunoblot)” value is listed as “detectable increase”. Besides, the “OPP assay (median fluorescence intensity of OPP Alexa Fluor 488, relative to DMSO), Mean” value in test [7] (HEK293T, n = 6, Fig. 2l) is on record as 0.7454. Further, the “de novo protein synthesis” value in test [7] was “decreased”. The “FASN, ACC1 and mTOR total protein levels” value in [8] (4 h cerulenin) is reported as “not affected”. The “FASN/Tubulin, Mean” value in test [8] (ED Fig. 3l, relative to DMSO) was 1.005. In test [8] (ED Fig. 3m, relative to DMSO), the “ACC1/Tubulin, Mean” value stood at 1.011. Moreover, the “mTOR/Tubulin, Mean” value in [8] (ED Fig. 3n, relative to DMSO) turned out to be 1.067. Moreover, the “RagC/LAMP2 colocalization (Manders' coefficient), Mean” value in test [9] stood at 0.5276.

The values above are taken from publication PMC10495264 (Nature Cell Biology, 2023).
